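Where inhibition never reached the appropriate level, the endpoint shown equals the highest concentration tested. Otherwise, values were interpolated linearly from a five-concentration, 48-hour dose response in 96-well plates. GI50 = concentration required for 50% inhibition of growth.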 Calls of active or inactive are those of the source. Rule as the data show it: active = GI50 up to about 1.1 µM and inactive = higher.
Key:
Test in all cases: NCI-60 cell line screen, 48 h
ACHN = test system: ACHN
MCF7 = test system: MCF7
LXFL 529 = test system: LXFL 529
KM-20L2 = test system: KM-20L2
HOP-62 = test system: HOP-62
A498 = test system: A498
UO-31 = test system: UO-31
NCI-H226 = test system: NCI-H226
IGROV-1 = test system: IGROV-1
SK-MEL-5 = test system: SK-MEL-5
KM12 = test system: KM12
LOX IMVI = test system: LOX IMVI
A549 = test system: A549
SW-620 = test system: SW-620
NCI-H460 = test system: NCI-H460
M19-MEL = test system: M19-MEL
SR = test system: SR
HCT-116 = test system: HCT-116
PC-3 = test system: PC-3
U-251 = test system: U-251
MDA-MB-231 = test system: MDA-MB-231
OVCAR-4 = test system: OVCAR-4
OVCAR-3 = test system: OVCAR-3
RXF 393 = test system: RXF 393
SF-295 = test system: SF-295
K562 = test system: K562
M14 = test system: M14
CCRF-CEM = test system: CCRF-CEM
HL-60 = test system: HL-60
MDA-N = test system: MDA-N
COLO 205 = test system: COLO 205
HCC 2998 = test system: HCC 2998
SNB-19 = test system: SNB-19
UACC-257 = test system: UACC-257
MOLT-4 = test system: MOLT-4
EKVX = test system: EKVX
SNB-75 = test system: SNB-75
HT-29 = test system: HT-29
DMS-114 = test system: DMS-114
DMS-273 = test system: DMS-273
CAKI-1 = test system: CAKI-1
Malme-3M = test system: Malme-3M
RPMI-8226 = test system: RPMI-8226
OVCAR-8 = test system: OVCAR-8
XF498 = test system: XF498
HCT-15 = test system: HCT-15
NCI/ADR-RES = test system: NCI/ADR-RES
DU-145 = test system: DU-145
SF-539 = test system: SF-539
Hs-578T = test system: Hs-578T
SK-MEL-2 = test system: SK-MEL-2
SF-268 = test system: SF-268
NCI-H23 = test system: NCI-H23
UACC-62 = test system: UACC-62
SN12C = test system: SN12C
T47D = test system: T47D
HOP-92 = test system: HOP-92
OVCAR-5 = test system: OVCAR-5
RXF 631 = test system: RXF 631
786-0 = test system: 786-0
BT-549 = test system: BT-549
SK-MEL-28 = test system: SK-MEL-28
NCI-H522 = test system: NCI-H522
TK-10 = test system: TK-10
MDA-MB-435 = test system: MDA-MB-435
DLD-1 = test system: DLD-1
SK-OV-3 = test system: SK-OV-3
SNB-78 = test system: SNB-78

Measured: GI50

CC(C)c1ccc(C2NC(S)=NC3=C2c2ccccc2C3=O)cc1 (stereo unspecified)
20.6 µM: HCT-15
inactive: ACHN 27.7 µM | MCF7 10.2 µM | LXFL 529 38.3 µM | KM-20L2 25.6 µM | HOP-62 25.8 µM | A498 36.7 µM | UO-31 21.5 µM | NCI-H226 34.4 µM | IGROV-1 27 µM | SK-MEL-5 20.1 µM | KM12 27.4 µM | LOX IMVI 20.6 µM | A549 28.6 µM | SW-620 23.4 µM | NCI-H460 29.2 µM | M19-MEL 38.9 µM | SR 8.95 µM | HCT-116 23.6 µM | PC-3 11.3 µM | U-251 26.7 µM | MDA-MB-231 16.9 µM | OVCAR-4 21.6 µM | OVCAR-3 26.2 µM | RXF 393 10.3 µM | SF-295 20.5 µM | K562 22.6 µM | M14 28 µM | CCRF-CEM 26.5 µM | HL-60 8.75 µM | MDA-N 5.31 µM | COLO 205 26.4 µM | HCC 2998 > 36.6 µM | SNB-19 23.8 µM | UACC-257 > 41.4 µM | MOLT-4 24.4 µM | EKVX 33.4 µM | SNB-75 15.7 µM | HT-29 25.5 µM | DMS-114 21.3 µM | DMS-273 30 µM | CAKI-1 22.8 µM | Malme-3M 26.2 µM | RPMI-8226 23.2 µM | OVCAR-8 32.1 µM | XF498 32.4 µM | NCI/ADR-RES 15.1 µM | DU-145 16.7 µM | SF-539 18.7 µM | Hs-578T 14.8 µM | SK-MEL-2 17.4 µM | SF-268 19.9 µM | NCI-H23 23.6 µM | UACC-62 12 µM | SN12C 24.7 µM | T47D 18.2 µM | HOP-92 22.3 µM | OVCAR-5 34 µM | RXF 631 54 µM | 786-0 22.5 µM | BT-549 17.1 µM | SK-MEL-28 21.1 µM | NCI-H522 17.3 µM | TK-10 34 µM | MDA-MB-435 6.97 µM | DLD-1 48.5 µM | SK-OV-3 25.4 µM

C/C(CC(=O)NCCc1ccccc1)=N\NS(=O)(=O)c1ccc(C)cc1
inactive: ACHN > 100 µM | LXFL 529 > 100 µM | KM-20L2 > 100 µM | HOP-62 > 100 µM | A498 > 100 µM | UO-31 > 100 µM | NCI-H226 > 100 µM | IGROV-1 > 100 µM | SK-MEL-5 > 100 µM | KM12 > 100 µM | LOX IMVI > 100 µM | A549 > 100 µM | SW-620 > 100 µM | NCI-H460 > 100 µM | M19-MEL > 100 µM | HCT-116 > 100 µM | U-251 > 100 µM | OVCAR-3 > 100 µM | RXF 393 > 100 µM | SF-295 > 100 µM | K562 > 100 µM | M14 > 100 µM | CCRF-CEM > 100 µM | HL-60 > 100 µM | COLO 205 > 100 µM | SNB-78 > 100 µM | HCC 2998 > 100 µM | UACC-257 > 100 µM | MOLT-4 > 100 µM | EKVX > 100 µM | SNB-75 > 100 µM | HT-29 > 100 µM | DMS-114 > 100 µM | DMS-273 > 100 µM | Malme-3M > 100 µM | RPMI-8226 > 100 µM | OVCAR-8 > 100 µM | XF498 > 100 µM | SF-539 > 100 µM | SK-MEL-2 > 100 µM | SF-268 > 100 µM | NCI-H23 > 100 µM | UACC-62 > 100 µM | HOP-92 > 100 µM | OVCAR-5 > 100 µM | RXF 631 > 100 µM | 786-0 > 100 µM | SK-MEL-28 > 100 µM | NCI-H522 > 100 µM | TK-10 > 100 µM | DLD-1 > 100 µM | SK-OV-3 > 100 µM

CCOc1ccc2[nH]c3c(C)c4ccncc4c(C)c3c2c1
inactive: A498 1.8 µM | UO-31 2.91 µM | NCI-H226 1.82 µM | IGROV-1 1.16 µM | SK-MEL-5 1.51 µM | LOX IMVI 1.2 µM | A549 1.45 µM | M19-MEL 1.51 µM | OVCAR-4 1.41 µM | OVCAR-3 4.27 µM | RXF 393 1.54 µM | M14 1.55 µM | HL-60 1.2 µM | COLO 205 1.21 µM | SNB-78 1.34 µM | HCC 2998 1.42 µM | SNB-19 1.45 µM | UACC-257 1.75 µM | EKVX 1.46 µM | SNB-75 1.71 µM | DMS-114 1.34 µM | CAKI-1 1.69 µM | Malme-3M 1.41 µM | RPMI-8226 1.36 µM | SF-539 1.58 µM | SK-MEL-2 1.19 µM | SF-268 1.18 µM | NCI-H23 1.45 µM | HOP-92 1.45 µM | OVCAR-5 1.58 µM | RXF 631 1.27 µM | SK-MEL-28 1.91 µM | NCI-H522 1.45 µM | TK-10 2.12 µM | SK-OV-3 3.91 µM
0.448 µM: HCT-15
active: ACHN 1.07 µM | LXFL 529 0.698 µM | KM-20L2 1.08 µM | HOP-62 1.08 µM | KM12 1 µM | SW-620 0.466 µM | NCI-H460 0.451 µM | SR 0.37 µM | HCT-116 0.486 µM | U-251 1 µM | SF-295 1.02 µM | K562 0.377 µM | CCRF-CEM 0.649 µM | MOLT-4 0.426 µM | HT-29 0.71 µM | DMS-273 0.394 µM | OVCAR-8 0.789 µM | XF498 0.984 µM | SN12C 0.564 µM | 786-0 1.03 µM | DLD-1 0.561 µM
